Source: US9247750B2, “Polyenylcyclopropanecarboxylic esters with high insecticidal activity” (Endura S.P.A., priority 2007, dated 2016)

Assays:
Format in all cases: in vivo
Aedes aegypti [1] = experiment: Insecticide effectiveness in the vapour phase against mosquitoes, impregnated paper unit in 20 m^3 room (Example 9); details: 5 mg/unit; for % mortality 24 h: 24th hour from start of test; for % Knock-down 8 h: at end of 8th hour; for Knock-down time KT10 / Knock-down time KT50 / Knock-down time KT90: average of 3 cages
Description: (§1) Test units consisting of a paper support 20 cm×10 cm in size were impregnated with the compound of examples 3, 7 and 8 and, for comparative purposes, with the reference compounds transfluthrin and metofluthrin, at an amount of 5.00 mg/unit for each compound (pure). Using a common laboratory stand, the test unit was placed at a height of about 30 cm from the ground along one side of a 20 m^3 room (L 3.00 m×D 2.49 m×H 2.69 m). In order to homogenize the insecticidal air within the room, a small electric fan was placed on the floor diagonal to the surface of the unit, in the nearest corner at a distance of about 50 cm from the unit. Three metal cages (L 8.4 cm×Ø 8.0 cm×mesh 1.0 mm) for every mosquito species, each containing 20 3-4 day old individuals of mixed sex, were placed along the other three sides of the room, at a height of 1.80 m from the ground and at a distance of 0.45 m from the respective walls. During the test the room was kept closed and temperature and humidity were controlled (T 23-26° C., RH 49-61%). The fan was switched on and left on for 8 continuous hours. The times needed to reach 10%, 50% and 90% insect knock-down (KT10, KT50 and KT90, respectively) were recorded.
(§2) Every 2 hours and up to the 6th hour after the fan was switched on, new cages were introduced containing insects (set of 3 cages for each species).
(§3) At the end of the 8th hour, the percentage of insects knocked down in all the cages was determined, then the insects were removed from the room and transferred into an uncontaminated atmosphere within closed containers containing a sugary solution. The percentage mortality was recorded at the 24th hour from the start of the test.
(§4) The results obtained are summarized in tables 1 and 2 and the data are averages for the 3 cages.

Culex quinquefasciatus [2] = experiment: as above; details: 5 mg/unit; for % mortality 24 h: 24th hour from start of test; for % Knock-down 8 h: at end of 8th hour; for Knock-down time KT10 / Knock-down time KT50 / Knock-down time KT90: average of 3 cages
Description: as §1, §2, §3, §4

Blattella germanica = experiment: Effectiveness of residual insecticide on surfaces (glazed tiles) against cockroaches (Example 6); details: 50 mg/m^2 on glazed tiles, 24 h exposure
Description: Solutions of the compound of example 3 in acetone and, for comparison, of the reference compounds Transfluthrin and Metofluthrin were applied from a distance of 12 cm onto glazed tiles (Ostara model, 15×15 cm=225 cm^2) by means of a suitable glass sprayer, so as to obtain an applied amount of pure compound equal to 50 mg/m^2. After treatment the tiles were transferred to and maintained in a closed test room at controlled temperature and humidity (24-25° C., RH 50-60%). Glass rings (H 5.5 cm×Ø 9.5 cm), with their internal surface treated with talc, and each containing 5 cockroaches, were positioned at the centre of the tiles for each of the assessment times of 24 hours, 3, 7, 10 and 14 days following treatment. For each assessment day, the insects were maintained on the surface for 24 hours and the time (hours, minutes) necessary to attain 100% knock-down followed by death, or percentage knock-down at the end of 24 hours, were recorded.

Aedes aegypti [3] = experiment: Insecticide effectiveness in the vapour phase against mosquitoes, impregnated paper unit in 20 m^3 room (Example 5); details: 5 mg/unit; for % mortality 24 h: 24th hour from start of test; for % Knock-down 8 h: at end of 8th hour; for Knock-down time KT10 / Knock-down time KT50 / Knock-down time KT90: average of 3 cages
Description: (§5) Test units consisting of a paper support 20 cm×10 cm in size were impregnated with the compound of example 3 and, for comparative purposes, with the reference compounds transfluthrin and metofluthrin, at an amount of 5.00 mg/unit for each compound (pure).
(§6) Using a common laboratory stand, the test unit was placed at a height of about 30 cm from the ground along one side of a 20 m^3 room (L 3.00 m×D 2.49 m×H 2.69 m). In order to homogenize the insecticidal air within the room, a small electric fan was placed on the floor diagonal to the surface of the unit, in the is nearest corner at a distance of about 50 cm from the unit. Three metal cages (L 8.4 cm×Ø 8.0 cm×mesh 1.0 mm) for every mosquito species, each containing 20 3-4 day old individuals of mixed sex, were placed along the other three sides of the room, at a height of 1.80 m from the ground and at a distance of 0.45 m from the respective walls. During the test the room was kept closed and temperature and humidity were controlled (T 23-26° C., RH 49-61%).
(§7) The fan was switched on and left on for 8 continuous hours. The times needed to reach 10%, 50% and 90% insect knock-down (KT10, KT50 and KT90, respectively) were recorded.
as §2, §3, §4

Culex quinquefasciatus [4] = experiment: as above; details: 5 mg/unit; for % mortality 24 h: 24th hour from start of test; for % Knock-down 8 h: at end of 8th hour; for Knock-down time KT10 / Knock-down time KT50 / Knock-down time KT90: average of 3 cages
Description: as §5, §6, §7, §2, §3, §4

## CC1(C)[C@H](C=C(Cl)Cl)[C@H]1C(=O)OCc1c(F)c(F)cc(F)c1F [Transfluthrin, transfluthrin]
Aedes aegypti [1]; insect exposure after 0 hours
  % mortality 24 h: 100%
  % Knock-down 8 h: 100%
  Knock-down time KT10: 21 min
  Knock-down time KT50: 26 min
  Knock-down time KT90: 35 min
Aedes aegypti [1]; insect exposure after 2 hours
  % mortality 24 h: 100%
  % Knock-down 8 h: 100%
  Knock-down time KT10: 7 min
  Knock-down time KT50: 9 min
  Knock-down time KT90: 12 min
Aedes aegypti [1]; insect exposure after 4 hours
  % mortality 24 h: 100%
  % Knock-down 8 h: 100%
  Knock-down time KT10: 6 min
  Knock-down time KT50: 9 min
  Knock-down time KT90: 14 min
Culex quinquefasciatus [2]; insect exposure after 0 hours
  % mortality 24 h: 100%
  % Knock-down 8 h: 100%
  Knock-down time KT10: 31 min
  Knock-down time KT50: 42 min
  Knock-down time KT90: 55 min
Culex quinquefasciatus [2]; insect exposure after 2 hours
  % mortality 24 h: 100%
  % Knock-down 8 h: 100%
  Knock-down time KT10: 16 min
  Knock-down time KT50: 25 min
  Knock-down time KT90: 34 min
Culex quinquefasciatus [2]; insect exposure after 4 hours
  % mortality 24 h: 100%
  % Knock-down 8 h: 100%
  Knock-down time KT10: 11 min
  Knock-down time KT50: 16 min
  Knock-down time KT90: 24 min
Blattella germanica; 1 day after treatment
  percentage knock-down after 24 hours: 60%
Blattella germanica; 3 days after treatment
  percentage knock-down after 24 hours: 24 h 0%
Blattella germanica; 7 days after treatment
  percentage knock-down after 24 hours: 24 h 0%
Aedes aegypti [3]; insect exposure after 0 hours
  % mortality 24 h: 100%
  % Knock-down 8 h: 100%
  Knock-down time KT10: 21 min
  Knock-down time KT50: 26 min
  Knock-down time KT90: 36 min
Aedes aegypti [3]; insect exposure after 2 hours
  % mortality 24 h: 100%
  % Knock-down 8 h: 100%
  Knock-down time KT10: 5 min
  Knock-down time KT50: 9 min
  Knock-down time KT90: 12 min
Aedes aegypti [3]; insect exposure after 4 hours
  % mortality 24 h: 100%
  % Knock-down 8 h: 100%
  Knock-down time KT10: 4 min
  Knock-down time KT50: 7 min
  Knock-down time KT90: 10 min
Culex quinquefasciatus [4]; insect exposure after 0 hours
  % mortality 24 h: 100%
  % Knock-down 8 h: 100%
  Knock-down time KT10: 27 min
  Knock-down time KT50: 37 min
  Knock-down time KT90: 44 min
Culex quinquefasciatus [4]; insect exposure after 2 hours
  % mortality 24 h: 100%
  % Knock-down 8 h: 100%
  Knock-down time KT10: 7 min
  Knock-down time KT50: 14 min
  Knock-down time KT90: 20 min
Culex quinquefasciatus [4]; insect exposure after 4 hours
  % mortality 24 h: 100%
  % Knock-down 8 h: 100%
  Knock-down time KT10: 9 min
  Knock-down time KT50: 17 min
  Knock-down time KT90: 22 min

## C=CC=C[C@@H]1[C@@H](C(=O)OCc2c(F)c(F)c(COC)c(F)c2F)C1(C)C (mixture of isomers) [Example 8, 2,3,5,6-tetrafluoro-4-methoxymethyl benzyl(1R,3R)-3-((E/Z)-Buta-1,3-dienyl)-2,2-dimethylcyclopropane-1-carboxylate]
Aedes aegypti [1]; insect exposure after 0 hours
  % mortality 24 h: 100%
  % Knock-down 8 h: 100%
  Knock-down time KT10: 22 min
  Knock-down time KT50: 31 min
  Knock-down time KT90: 40 min
Aedes aegypti [1]; insect exposure after 2 hours
  % mortality 24 h: 100%
  % Knock-down 8 h: 100%
  Knock-down time KT10: 12 min
  Knock-down time KT50: 29 min
  Knock-down time KT90: 41 min
Aedes aegypti [1]; insect exposure after 4 hours
  % mortality 24 h: 100%
  % Knock-down 8 h: 100%
  Knock-down time KT10: 18 min
  Knock-down time KT50: 32 min
  Knock-down time KT90: 50 min
Culex quinquefasciatus [2]; insect exposure after 0 hours
  % mortality 24 h: 83%
  % Knock-down 8 h: 100%
  Knock-down time KT10: 35 min
  Knock-down time KT50: 44 min
  Knock-down time KT90: 70 min
Culex quinquefasciatus [2]; insect exposure after 2 hours
  % mortality 24 h: 70%
  % Knock-down 8 h: 100%
  Knock-down time KT10: 39 min
  Knock-down time KT50: 50 min
  Knock-down time KT90: 68 min
Culex quinquefasciatus [2]; insect exposure after 4 hours
  % mortality 24 h: 61%
  % Knock-down 8 h: 100%
  Knock-down time KT10: 39 min
  Knock-down time KT50: 53 min
  Knock-down time KT90: 66 min

## C=CC=C[C@@H]1[C@@H](C(=O)OCc2coc(Cc3ccccc3)c2)C1(C)C (mixture of isomers) [Example 7, (2-benzyl-4-hydroxymethylfuryl) (1R,3R)-3-((E/Z)-Buta-1,3-dienyl)-2,2-dimethylcyclopropane-1-carboxylate]
Aedes aegypti [1]; insect exposure after 0 hours
  % mortality 24 h: 79%
  % Knock-down 8 h: 5%
Aedes aegypti [1]; insect exposure after 2 hours
  % mortality 24 h: 79%
  % Knock-down 8 h: 0%
Aedes aegypti [1]; insect exposure after 4 hours
  % mortality 24 h: 65%
  % Knock-down 8 h: 0%
Culex quinquefasciatus [2]; insect exposure after 0 hours
  % mortality 24 h: 70%
  % Knock-down 8 h: 8%
Culex quinquefasciatus [2]; insect exposure after 2 hours
  % mortality 24 h: 35%
  % Knock-down 8 h: 2%
Culex quinquefasciatus [2]; insect exposure after 4 hours
  % mortality 24 h: 23%
  % Knock-down 8 h: 0%
